Measured values reported in US4895589A, “Heterocyclic compounds” (Imperial Chemical Industries PLC, priority 1985, dated 1990).

How the values were obtained:
Rice = assay: Intermediate Retardant Test, rice; assay type: in vivo, Rice (Ishikari); settings: Oryza sativa, 672 h, ~28 days, Table VII, read-out: Percentage Reduction in Height of Rice (Compared to formulation blank)
Procedure, shortened: (§1)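 Percentage height reduction relative to the formulation blank, assessed about 28 days post-treatment as height to top-most ligule (rice, spring barley) or to apex (apples). Compounds sprayed overall at 1000 and 4000 ppm (1 and 4 kg ha^-1 in 1000 l/ha), covering root and foliar uptake; rice grown immersed in paddy pots.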

Spring Barley = assay: Intermediate Retardant Test, spring barley; assay type: in vivo, Spring Barley (Atem/kym); settings: Hordeum vulgare, 672 h, ~28 days, Table VIII, read-out: Percentage Reduction in Height of Spring Barley (Compared to formulation blank)
Procedure, shortened: as §1

Apples = assay: Intermediate Retardant Test, apples; assay type: in vivo, Apples (Red Delicious); settings: 672 h, ~28 days, Table IX, read-out: Percentage Reduction in Height of Apples (Compared to formulation blank)
Procedure, shortened: as §1

Wheat = settings: WW, 4000 ppm, 2-3 weeks
Maize = settings: MZ, 4000 ppm, 2-3 weeks
Experimental: (§2) The compounds were tested for plant growth regulator activity against up to tweleve plant species for various growth effects relevant to plant growth regulation.
(§3) Each chemical was applied at 4000 ppm (4 kg/ha in a 1000 l/ha field volume) using a tracksprayer and a SS8004E (Teejet) nozzle.
(§4) After spray, the plants were grown in a glasshouse with 25° C. day/22° C. night temperatures and supplementary lighting was supplied when necessary (from mercury vapour lamps), to provide a 16 hour photoperiod. The exception to this were the temperate cereals, wheat and barley, which were grown in 16° C. day 13° C. night temperatures
(§5) After 2-3 weeks in the glasshouse, depending on the time of year, the plants were visually assessed for morphological characteristics. Formulations blanks were used as controls to assess the Plants.

Cynosurus cristatus = settings: CC, 4000 ppm, 2-3 weeks
Experimental: as §2, §3, §4, §5

Soya = settings: SY, 4000 ppm, 2-3 weeks
Experimental: as §2, §3, §4, §5

Sugar beet = settings: SB, 4000 ppm, 2-3 weeks
Experimental: as §2, §3, §4, §5

Tomato = settings: TO, 4000 ppm, 2-3 weeks
Lettuce = settings: LT, 4000 ppm, 2-3 weeks
Experimental: as §2, §3, §4, §5

[1] = test system: plant species of Whole Plant Screen (1) or (2); assay: Across screen comparison: total retardation relative to paclobutrazol (Whole Plant Screens (1) and (2)); assay type: in vivo; settings: compounds of Table I, Table X
Procedure, shortened: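 Compounds, each tested in Whole Plant Screen (1) or (2), are compared by summing retardation scores over all species tested. Each total is expressed as a percentage of the total retardation from paclobutrazol, the standard run in every test.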

Barley = settings: BR, 4000 ppm, 2-3 weeks
Experimental: as §2, §3, §4, §5

Agrostis tenius = settings: AT, 4000 ppm, 2-3 weeks
Dacrylis glomerata = settings: DA, 4000 ppm, 2-3 weeks
Experimental: as §2, §3, §4, §5

Vines = settings: VN, 4000 ppm, 2-3 weeks
Experimental: as §2, §3, §4, §5

Radish = settings: RA, 4000 ppm, 2-3 weeks
Experimental: as §2, §3, §4, §5

Row | SMILES | Percent reduction in rice plant height vs formulation blank at 1000 ppm (Rice) [%] | Percent reduction in rice plant height vs formulation blank at 4000 ppm (Rice) [%] | height reduction vs blank at 1000 ppm (Spring Barley) [%] | height reduction vs blank at 4000 ppm (Spring Barley) [%] | percent reduction in plant height vs formulation blank at 4000 ppm (Apples) [%] | Retardation score (1-3) with greening (G), apical damage (A), tillering/side shooting (T) (Wheat) | Retardation score (1-3) with greening (G), apical damage (A), tillering/side shooting (T) (Maize) | Retardation score (1-3) with greening (G), apical damage (A), tillering/side shooting (T) (Cynosurus cristatus) [G] | Retardation score (1-3) with greening (G), apical damage (A), tillering/side shooting (T) (Soya) | Retardation score (1-3) with greening (G), apical damage (A), tillering/side shooting (T) (Sugar beet) [G] | Retardation score (1-3) with greening (G), apical damage (A), tillering/side shooting (T) (Tomato) [G] | Retardation score (1-3) with greening (G), apical damage (A), tillering/side shooting (T) (Lettuce) | percent reduction in plant height vs formulation blank at 1000 ppm (Apples) [%] | Total Retardation expressed as a percentage of the total retardation caused by paclobutrazol [1] | Retardation score (1-3) with greening (G), apical damage (A), tillering/side shooting (T) (Barley) | Retardation score (1-3) with greening (G), apical damage (A), tillering/side shooting (T) (Agrostis tenius) [G] | Retardation score (1-3) with greening (G), apical damage (A), tillering/side shooting (T) (Dacrylis glomerata) [G] | Retardation score (1-3) with greening (G), apical damage (A), tillering/side shooting (T) (Vines) | Retardation score (1-3) with greening (G), apical damage (A), tillering/side shooting (T) (Radish)
1 | CCCCC#CC(Cn1cncn1)(OC)C(C)(C)C (stereo not drawn) [Compound 2] | 17.4 | 34.6 | 0.2 | 25.6 | 12.3 | 2G | 2GA | 1 | 3GT | 1 | 1 | 1 (10-30% retardation) | – | – | – | – | – | – | –
2 | CCCCCC#CC(O)(Cn1cncn1)C(C)(C)C (stereo not drawn) [Compound 3, 2,2-dimethyl-3-hydroxy-3-(hept-1-yne-1-yl)-4-(1,2,4-triazol-1-yl)-butane] | 21.2 | 40.8 | 18.5 | 34.7 | 25.9 | 2GT | 1G | 2 | 3GA | 1 | 2 | – | 9.5 | 65.6 % of paclobutrazol | 1 | 2 | 2 | 2GAT | 3 (61-100% retardation)
3 | CC(C)CCC#CC(O)(Cn1cncn1)C(C)(C)C (stereo not drawn) [Compound 8, 2,2-dimethyl-3-hydroxy-3-(5-methyl-hex-1-yne-1-yl)-4-(1,2,4-triazol-1-yl)-butane] | 26.6 | 47.7 | 39.6 | 65.8 | 26 | 3GT | 1G | 2 | 3G | – | 2 | 1G | 7.5 | 60.0 % of paclobutrazol | 1 | 1 | 1 | 1 (10-30% retardation) | 3G
